The subject of one experiment is SIRT2. On the set-up: method as in PMID 26961318, PMID 24992072, PMID 26025875, PMID 24387981. Particulars: known sirtuin inhibitors, Figure 1; ref [16],[17],[18],[19]; cited from earlier work.
A further experiment has as its system SIRT1. On the set-up: method as in PMID 26961318, PMID 24992072, PMID 26025875, PMID 24387981. The settings on record: known sirtuin inhibitors, Figure 1; ref [16],[17],[18],[19]; cited from earlier work.
A further experiment concerns the target T1, human recombinant SIRT3 (Homo sapiens, UniProt Q9NTG7).
T1 sequence (Q9NTG7 118-399): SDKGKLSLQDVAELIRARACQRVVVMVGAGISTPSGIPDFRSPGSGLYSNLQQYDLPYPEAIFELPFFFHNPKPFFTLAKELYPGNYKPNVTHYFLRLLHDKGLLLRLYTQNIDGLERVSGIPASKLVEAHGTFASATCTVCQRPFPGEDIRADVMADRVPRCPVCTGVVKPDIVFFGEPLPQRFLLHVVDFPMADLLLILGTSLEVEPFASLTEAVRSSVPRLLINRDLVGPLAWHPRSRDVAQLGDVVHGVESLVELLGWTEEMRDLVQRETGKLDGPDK
Description: SIRT3 enzymatic deacetylation assay with AMC-tagged peptide substrate (fluorescence).

The IC50 is the concentration at which inhibition is half-maximal.

For `Cn1cc(C2=C(c3cn(CCCSC(=N)N)c4ccccc34)C(=O)NC2=O)c2ccccc21` [Ro31-8220], the 50% inhibitory concentration (IC50) is […] in the experiment with SIRT2 and […] in the experiment with SIRT1.

As to `CN(C)CCCCC(=O)Nc1ccc(NC(=S)NC(=O)c2ccc(C(C)(C)C)cc2)cc1` [Tenovin6], the IC50 is 89.3 µM on human recombinant SIRT3, […] in the experiment with SIRT2 and […] in the experiment with SIRT1.

Source of the values: publication PMC6152376, “Synthesis and Evaluation of Novel Benzofuran Derivatives as Selective SIRT2 Inhibitors” (Molecules : A Journal of Synthetic Chemistry and Natural …, 2017).
